The record followed here is paper PMC5478271, “Chemical structure-guided design of dynapyrazoles, cell-permeable dynein inhibitors with a unique mode of action” (eLife, 2017).

The subject of one experiment is CAD cells. The experiment is described as follows: Lysosome motility assay in CAD cell neurites (LysoTracker). It is filed as cell-based, murine. The settings on record: for Percentage of retrograde-directed lysosomes moving slower than 25 nm/s: 60 min; for Average track length of moving particles (lysosomes): 1 min imaging, control 32 ± 11 µm. An excerpt:
This bidirectional transport of lysosomes requires kinesins and dynein 1 and can be observed by imaging live cells stained with the LysoTracker dye ([Vale, 2003]; [Pu et al., 2016]). A coupling between anterograde and retrograde motion has been described for membrane-bound organelles, with disruption of dynein-driven motion blocking bi-directional organelle motility ([Barlan et al., 2013]). We imaged control solvent (0.1% DMSO) treated cells and observed bidirectional motion of LysoTracker-labelled puncta (Figure 5E,H,K, Video 5). Overlays of successive images from a time-lapse series, color-coded for displacement, reveal organelle displacements (Figure 5H–J). […] Treatment with dynapyrazole-A suppressed bidirectional motion. In particular, the percentage of retrograde-directed lysosomes moving slower than 25 nm/s increased to ~47% (3.5µM) and ~59% (5µM) while the proportion of lysosomes moving at speeds > 250 nm/s decreased to below 10% (Figure 5N). We observed equivalent effects of dynapyrazole-A on anterograde motion velocities (kymographs in Figure 5K,L and M). In control cells, lysosomes with measureable displacements had trajectories that averaged 32 ± 11 µm (Figure 5O). Dynapyrazole-A (3.5 µM, Figure 5I and L) reduced the average track length of moving particles to 15.7 ± 4.7 µm, which can be seen as white punctae that result from the overlay of multiple color-coded frames without particle translocation. A higher dose of dynapyrazole-A 5 µM) shortened the average track length of moving particles to 6.7 ± 2.7 µm (Figure 5J,M,O). […] Higher concentrations of dynapyrazole-A (15 µM) lowered intracellular ATP levels by ~70% at 3 hr (Figure 5—figure supplement 5).
CAD cells (catecholaminergic neuronal tumor cell line, RRID:CVCL_0199) were maintained in DMEM/F12 medium with 10% Fetal Bovine Serum ([Qi et al., 1997]). Cell line identity was confirmed by the morphological response to serum withdrawal (i.e. neurite formation), a previously-documented characteristic of this cell line ([Qi et al., 1997]). 24 hr before the experiment cells were plated on coverslips in serum-free medium to induce neurite formation. Cells were treated with inhibitors or control solvent (0.1% DMSO final in all experiments) for 60 min, then lysosomes were labeled with 0.1 µM (final concentration) LysoTracker Red DND-99 (Molecular Probes) and used for microscopy immediately after LysoTracker addition.
Microscopy was performed using a Nikon TE-2000 inverted microscope equipped with a LED X-Cite illuminator (Lumen Dynamics) at 37 degrees. Images were acquired with a Hamamatsu ORCA-Flash 4.0 camera driven by MetaMorph software at a rate of 1 frame per second for 1 min. Lysosome motility in neurites was analyzed using Diatrack software (http://www.diatrack.org/), particle velocities were measured from frame to frame and the total length of trajectories divided by the number of analyzed organelles was calculated for every experimental condition.

The target in a further experiment is T1, His-dynein 1 (Homo sapiens, UniProt Q14204).
T1 construct: (wild-type, K1912A, K2601A, AA 1320–4646, uniprot: Q14204); made in house; host or cells: Sf9 insect cells (baculovirus)
T1 sequence (Q14204 1320-4646): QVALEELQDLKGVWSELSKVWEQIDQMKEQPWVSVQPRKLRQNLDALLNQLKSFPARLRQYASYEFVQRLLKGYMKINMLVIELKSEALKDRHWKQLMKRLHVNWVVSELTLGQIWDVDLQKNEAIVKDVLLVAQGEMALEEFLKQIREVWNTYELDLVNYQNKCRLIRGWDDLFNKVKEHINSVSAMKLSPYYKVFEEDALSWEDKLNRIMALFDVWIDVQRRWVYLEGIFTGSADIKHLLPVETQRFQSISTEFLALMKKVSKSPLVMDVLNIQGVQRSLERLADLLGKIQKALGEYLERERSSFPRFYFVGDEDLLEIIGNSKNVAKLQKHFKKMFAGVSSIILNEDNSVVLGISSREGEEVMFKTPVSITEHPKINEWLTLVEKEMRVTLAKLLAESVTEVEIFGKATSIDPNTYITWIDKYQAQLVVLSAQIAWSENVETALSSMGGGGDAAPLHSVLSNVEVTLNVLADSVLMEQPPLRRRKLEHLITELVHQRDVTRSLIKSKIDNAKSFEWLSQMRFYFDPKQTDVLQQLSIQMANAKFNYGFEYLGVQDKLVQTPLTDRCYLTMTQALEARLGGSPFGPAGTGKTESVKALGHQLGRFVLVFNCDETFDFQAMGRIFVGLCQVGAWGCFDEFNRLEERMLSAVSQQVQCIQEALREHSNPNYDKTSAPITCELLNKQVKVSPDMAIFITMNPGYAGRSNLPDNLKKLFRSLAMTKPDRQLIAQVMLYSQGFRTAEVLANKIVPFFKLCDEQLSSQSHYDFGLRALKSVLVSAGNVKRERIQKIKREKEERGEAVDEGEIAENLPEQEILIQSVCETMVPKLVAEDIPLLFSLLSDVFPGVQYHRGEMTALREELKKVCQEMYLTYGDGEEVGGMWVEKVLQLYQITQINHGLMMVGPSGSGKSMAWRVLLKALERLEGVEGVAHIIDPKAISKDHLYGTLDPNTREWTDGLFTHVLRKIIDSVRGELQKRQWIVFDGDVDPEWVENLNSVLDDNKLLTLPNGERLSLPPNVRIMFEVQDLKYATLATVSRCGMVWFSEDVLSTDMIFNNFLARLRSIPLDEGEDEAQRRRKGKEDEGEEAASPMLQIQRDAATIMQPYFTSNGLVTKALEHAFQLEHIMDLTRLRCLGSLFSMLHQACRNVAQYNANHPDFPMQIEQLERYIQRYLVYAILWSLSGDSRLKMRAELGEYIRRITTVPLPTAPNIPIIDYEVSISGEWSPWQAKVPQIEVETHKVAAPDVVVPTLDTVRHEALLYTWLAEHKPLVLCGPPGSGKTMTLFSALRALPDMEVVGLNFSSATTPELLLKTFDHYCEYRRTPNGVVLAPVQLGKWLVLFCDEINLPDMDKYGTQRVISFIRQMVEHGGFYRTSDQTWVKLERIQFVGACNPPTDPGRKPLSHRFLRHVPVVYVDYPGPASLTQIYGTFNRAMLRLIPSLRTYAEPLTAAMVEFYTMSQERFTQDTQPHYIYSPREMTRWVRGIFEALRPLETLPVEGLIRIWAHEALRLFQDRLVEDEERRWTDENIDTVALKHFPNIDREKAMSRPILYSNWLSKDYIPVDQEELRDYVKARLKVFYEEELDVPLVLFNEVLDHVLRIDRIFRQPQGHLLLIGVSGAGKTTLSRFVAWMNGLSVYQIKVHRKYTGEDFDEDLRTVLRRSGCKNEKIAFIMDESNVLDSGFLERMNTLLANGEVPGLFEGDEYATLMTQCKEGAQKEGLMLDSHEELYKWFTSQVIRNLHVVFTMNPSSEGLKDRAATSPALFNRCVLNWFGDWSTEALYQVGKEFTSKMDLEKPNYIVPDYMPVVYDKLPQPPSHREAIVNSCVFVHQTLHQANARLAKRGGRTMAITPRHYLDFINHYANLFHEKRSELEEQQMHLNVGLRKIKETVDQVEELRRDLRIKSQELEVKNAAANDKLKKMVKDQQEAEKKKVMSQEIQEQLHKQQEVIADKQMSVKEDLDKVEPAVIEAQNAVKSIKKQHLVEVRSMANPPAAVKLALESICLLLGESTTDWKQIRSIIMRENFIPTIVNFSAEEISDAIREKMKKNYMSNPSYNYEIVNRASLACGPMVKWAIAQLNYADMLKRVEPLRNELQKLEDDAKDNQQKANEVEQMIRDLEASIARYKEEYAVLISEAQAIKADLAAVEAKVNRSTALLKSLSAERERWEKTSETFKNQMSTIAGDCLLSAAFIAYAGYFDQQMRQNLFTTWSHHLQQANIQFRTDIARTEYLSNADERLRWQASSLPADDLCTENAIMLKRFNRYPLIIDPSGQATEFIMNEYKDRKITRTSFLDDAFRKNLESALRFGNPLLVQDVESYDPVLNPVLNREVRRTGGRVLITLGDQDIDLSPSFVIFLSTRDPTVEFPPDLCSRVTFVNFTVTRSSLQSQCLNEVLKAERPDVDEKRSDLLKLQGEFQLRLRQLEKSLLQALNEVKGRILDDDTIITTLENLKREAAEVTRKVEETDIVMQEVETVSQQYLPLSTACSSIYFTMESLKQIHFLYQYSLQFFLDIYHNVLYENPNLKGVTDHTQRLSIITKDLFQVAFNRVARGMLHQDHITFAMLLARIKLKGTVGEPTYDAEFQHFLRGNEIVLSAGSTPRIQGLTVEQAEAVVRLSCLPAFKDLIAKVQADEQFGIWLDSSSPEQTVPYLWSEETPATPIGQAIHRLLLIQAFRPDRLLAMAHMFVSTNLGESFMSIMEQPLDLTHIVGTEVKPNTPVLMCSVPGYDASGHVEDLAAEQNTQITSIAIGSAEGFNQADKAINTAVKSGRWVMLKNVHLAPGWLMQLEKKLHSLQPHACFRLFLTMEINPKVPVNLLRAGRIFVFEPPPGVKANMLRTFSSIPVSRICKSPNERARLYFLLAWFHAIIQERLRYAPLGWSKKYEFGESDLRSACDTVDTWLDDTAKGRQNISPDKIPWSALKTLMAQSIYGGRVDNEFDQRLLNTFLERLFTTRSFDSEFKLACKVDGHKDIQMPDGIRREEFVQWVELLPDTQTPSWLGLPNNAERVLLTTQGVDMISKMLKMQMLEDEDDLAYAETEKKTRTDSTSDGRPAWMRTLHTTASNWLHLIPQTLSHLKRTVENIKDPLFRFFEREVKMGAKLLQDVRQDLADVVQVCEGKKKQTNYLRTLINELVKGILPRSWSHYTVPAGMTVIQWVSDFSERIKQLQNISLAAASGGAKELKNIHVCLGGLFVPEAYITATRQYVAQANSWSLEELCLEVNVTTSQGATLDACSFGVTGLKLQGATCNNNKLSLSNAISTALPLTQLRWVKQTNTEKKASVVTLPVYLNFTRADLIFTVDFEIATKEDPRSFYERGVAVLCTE
The experiment is described as follows: Ultraviolet light and ADP-vanadate-dependent photocleavage of dynein. The experiment is classed as biochemical. The settings on record: 4 µM compound. How it is done: Thirty-microliter reactions were prepared in 96-well plates as follows. ATPase buffer was supplemented with concentrated stocks of His-dynein 1 (90nM final), compound 8 (4µM final) or an equivalent amount of solvent carrier (3.3% DMSO), followed by a 10 min incubation at room temperature. ATP (0.1 mM final) was added and the mixtures were incubated 5 min at room temperature. NaVO3 (0.1 mM final) was added and the mixtures were again incubated 5 min at room temperature. Vanadate was deliberately omitted from one well. The plate was then transferred to ice and irradiated with 365 nm light for 15 min with the lamp positioned 10 cm above the plate(Spectroline Maxima ML-3500S lamp). Following addition of SDS-PAGE loading buffer and heating (95°, 5 min), individual reactions were resolved on hand-poured 8% tris-glycine polyacrylamide gels. Gels were stained (Coomassie blue), imaged using a Li-Cor Odyssey, and band intensities were analyzed using FIJI.
Quantification of ADP-vanadate dependent photocleavage of dynein was performed as follows: Scanned gels were analyzed with FIJI, and fraction cleaved quantified as follows:
Fraction cleaved = (intensity of band at 250 kDa) /
(intensity of band at 250 kDa + intensity of band at ~350 kDa)

Take `N#Cc1c(C2(c3ccc(Cl)cc3)CC2)nn2c1[nH]c(=O)c1cc(I)ccc12` [Compound 8, 2-[1-(4-chlorophenyl)cyclopropyl]-7-iodo-5-oxo-4H-pyrazolo[1,5-a]quinazoline-3-carbonitrile]: in the experiment with CAD cells (3.5 µM and 5 µM, control ~20%), the “Proportion of lysosomes moving at speeds > 250 nm/s” value is listed as “below 10%”. Further, the “Percentage of retrograde-directed lysosomes moving slower than 25 nm/s” value in the experiment with CAD cells (3.5 µM, control ~20%) is reported as ~ 47%; in the experiment on CAD cells (5 µM, control ~20%) it was ~ 59%. Further, the “Average track length of moving particles (lysosomes)” value worked out at 15.7 ± 4.7 µm in the experiment with CAD cells (3.5 µM) and 6.7 ± 2.7 µm in the experiment with CAD cells (5 µM). Besides, the “Reduction of ADP-vanadate dependent photocleavage relative to controls” value at His-dynein 1 is recorded as ~ 2.5 fold. In addition, the “ADP-vanadate dependent photocleavage of His-dynein 1” value on His-dynein 1 (100 µM ATP, 100 µM vanadate, control 42 ± 3%) amounted to 17 ± 2%.
